Assay results: patent US7348328B2, “MCH antagonists for the treatment of obesity” (Schering Corporation, priority 2001, dated 2008)

Target: T1, MCH receptor (Homo sapiens, UniProt Q99705)
T1 construct: expressed in transfected cells; host or cells: CHO cells (membranes)
Assay: MCH Receptor Binding Assay
Settings: Binding Activity; membranes from CHO cells expressing the MCH receptor, [125I]-MCH; read-out: MCH Ki
Procedure: MCH Receptor Binding Assay:
Membranes from CHO cells expressing the MCH receptor were prepared by lysing cells with 5 mM HEPES for 15 min at 4C. Cell lysates were centrifuged ([…], 15 min) and the pellet was resuspended in 5 mM HEPES. For each 96-well plate (Microlite, Dynex Technologies), 1 mg of cell membranes were incubated with 10 mg of wheat germ agglutinin SPA beads (Amersham) for 5 min at 4 C. in a volume of 10 ml of binding buffer (25 mM HEPES, 10 mM MGCl2, 10 mM NaCl, 5 mM MnCl2, 0.1% BSA). The membrane/bead mixture was centrifuged (1500×g, 3.5 min), the supernatant was aspirated, and the pellet was resuspended in 10 ml binding buffer. The centrifugation, aspiration and resuspension were then repeated. […] Nonspecific binding was determined by including 1 μM MCH in the binding reaction. The binding reaction was incubated at room temperature for 2 h. Plates were then analyzed in a TOPCOUNT microplate scintillation counter (Packard). Data was analyzed and Ki values were determined using GraphPad Prim.

T1 sequence (Q99705 whole entry): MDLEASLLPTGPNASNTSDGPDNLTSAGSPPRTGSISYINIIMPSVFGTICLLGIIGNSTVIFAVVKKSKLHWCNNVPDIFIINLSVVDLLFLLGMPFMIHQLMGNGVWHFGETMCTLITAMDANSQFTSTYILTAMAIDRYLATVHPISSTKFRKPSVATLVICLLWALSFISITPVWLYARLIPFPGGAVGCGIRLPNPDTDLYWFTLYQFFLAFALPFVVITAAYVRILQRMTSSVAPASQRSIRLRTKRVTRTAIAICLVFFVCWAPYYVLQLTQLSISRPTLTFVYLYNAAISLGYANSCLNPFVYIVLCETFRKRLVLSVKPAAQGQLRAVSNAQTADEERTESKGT

Structure (SMILES)	Ki
CC(C)CN1CCN(CCN(C(=O)Nc2ccc(F)c(C(F)(F)F)c2)[C@@H]2CC[C@]3(c4cccc(C#N)c4)C[C@H]23)CC1 [Example 208]	9 nM
N#Cc1cccc([C@]23CC[C@@H](N(CCN4CCCC4)C(=O)Nc4cc(Cl)cc(Cl)c4)[C@H]2C3)c1 [Example 188]	15 nM
N#Cc1cccc([C@]23CC[C@@H](N(CCN4CC[C@@H](O)C4)C(=O)Nc4ccc(F)c(Cl)c4)[C@H]2C3)c1 [Example 191]	22 nM
CN1CCN(CCN(C(=O)Nc2ccc(F)c(C(F)(F)F)c2)[C@@H]2CC[C@]3(c4cccc(C#N)c4)C[C@H]23)CC1 [Example 206]	30 nM
N#Cc1cccc([C@]23CC[C@@H](N(CCN4CCN(CC5CC5)CC4)C(=O)Nc4ccc(F)c(C(F)(F)F)c4)[C@H]2C3)c1 [Example 209]	10 nM
N#Cc1cccc([C@]23CC[C@@H](N(CCN4CCCCC4)C(=O)Nc4ccc(F)c(Cl)c4)[C@H]2C3)c1 [Example 194]	4.1 nM
CN1CCN(CCCCN(C(=O)Nc2ccc(F)c(C(F)(F)F)c2)[C@@H]2CC[C@]3(c4cccc(C#N)c4)C[C@H]23)CC1 [Example 226]	2.2 nM
CN(C)CCN(C(=O)Nc1ccc(F)c(Cl)c1)[C@@H]1CC[C@]2(c3cccc(C#N)c3)C[C@H]12 [Example 187]	14 nM
CCCN1CCN(CCN(C(=O)Nc2ccc(F)c(C(F)(F)F)c2)[C@@H]2CC[C@]3(c4cccc(C#N)c4)C[C@H]23)CC1 [Example 207]	22 nM
N#Cc1cccc([C@]23CC[C@@H](N(CCN4CC[C@@H](O)C4)C(=O)Nc4ccc(F)c(C(F)(F)F)c4)[C@H]2C3)c1 [Example 193]	7.1 nM
N#Cc1cccc([C@]23CC[C@@H](N(CCCCN4CCCC4)C(=O)Nc4ccc(F)c(Cl)c4)[C@H]2C3)c1 [Example 196]	3.9 nM
CN(C)CCCCN(C(=O)Nc1ccc(F)c(Cl)c1)[C@@H]1CC[C@]2(c3cccc(C#N)c3)C[C@H]12 [Example 195]	10 nM
N#Cc1cccc([C@@]23CCC(N(CCN4CC[C@@H](O)C4)C(=O)Nc4ccc(F)c(Cl)c4)[C@@H]2C3)c1 (some centres unmarked) [Example 190]	13 nM
O=C(Nc1ccc(F)c(C(F)(F)F)c1)N(CCN1CC[C@@H](O)C1)[C@@H]1CC[C@]2(c3cccc(Br)c3)C[C@H]12 [Example 197]	79 nM
N#Cc1cccc([C@@]23CCC(N(CCN4CC[C@@H](O)C4)C(=O)Nc4ccc(F)c(C(F)(F)F)c4)[C@@H]2C3)c1 (some centres unmarked) [Example 199]	23 nM
N#Cc1cccc([C@]23CC[C@@H](N(CCN4CCNCC4)C(=O)Nc4ccc(F)c(C(F)(F)F)c4)[C@H]2C3)c1 [Example 210]	20 nM
N#Cc1cccc([C@]23CC[C@@H](N(CCN4CC[C@@H](O)C4)C(=O)Nc4ccc(F)c(C(F)(F)F)c4)[C@H]2C3)c1 [Example 198]	11 nM
N#Cc1cccc([C@]23CC[C@@H](N(CCCCN4CCCCC4)C(=O)Nc4ccc(F)c(C(F)(F)F)c4)[C@H]2C3)c1 [Example 227]	1.6 nM

Same assay, conditions: Table 1b, preferred compounds; read-out: MCH R1 Ki

Structure (SMILES)	Ki
N#Cc1cccc([C@]23CC[C@@H](N(CCN4CC[C@@H](O)C4)C(=O)Nc4ccc(F)c(C(F)(F)F)c4)[C@H]2C3)c1 [drawing 636]	11 nM
CC(=O)Nc1cccc([C@@]23CC[C@@H](N(CCN4CCCC4)C(=O)Nc4ccc(F)c(C(F)(F)F)c4)CC2C3)c1 (some centres unmarked)	4.6 nM
CN(C)CCN(C(=O)Nc1ccc(Cl)c(Cl)c1)C1CC=C(c2cccc(C#N)c2)CC1 (centres unmarked)	3 nM
N#Cc1cccc(C23CCC(N(CCN4CCCC4)C(=O)Nc4ccc(F)c(Cl)c4)C2C3)c1 (centres unmarked)	18 nM
CC(C)N(CCO)CCN(C(=O)Nc1cc(Cl)nc(Cl)c1)C1CC[C@@]2(c3cccc(C#N)c3)CC2C1 (some centres unmarked)	1.6 nM
N#Cc1ccc(C2=CCC(N(CCN3CCCC3)C(=O)Nc3ccc(F)c(Cl)c3)CC2)cc1 (centres unmarked)	11 nM
N#Cc1cccc([C@@]23CC[C@@H](N(CCN4CC[C@@H](O)C4)C(=O)Nc4ccc(F)c(C(F)(F)F)c4)CC2C3)c1 (some centres unmarked) [drawing 651]	6.2 nM
CS(=O)(=O)N1CCC(CN(C(=O)Nc2ccc(F)c(C(F)(F)F)c2)[C@@H]2CC[C@@]3(c4cccc(C#N)c4)CC3C2)CC1 (some centres unmarked)	26 nM
CN1CCN(CCCN(C(=O)Nc2ccc(F)c(Cl)c2)[C@@H]2CC[C@]3(c4cccc(Cl)c4)C[C@H]23)CC1	15 nM
CC(=O)NC1CCN(CCCN(C(=O)Nc2ccc(F)c(F)c2)[C@@H]2CC[C@@]3(c4cccc(C#N)c4)CC3C2)C1 (some centres unmarked)	5.8 nM
N#Cc1cccc([C@@]23CC[C@@H](N(CCN4CC[C@@H](O)C4)C(=O)Nc4ccc(F)c(C(F)(F)F)c4)CC2C3)c1 (some centres unmarked) [drawing 655]	16 nM
CN1CCN(CCCN(C(=O)Nc2ccc(F)c(Cl)c2)[C@@H]2CC[C@]3(c4ccc(OC(F)(F)F)cc4)C[C@H]23)CC1	13 nM
N#Cc1cccc([C@]23CC[C@@H](N(CCCCN4CCCC4)C(=O)Nc4ccc(F)c(Cl)c4)[C@H]2C3)c1 [drawing 675]	3.9 nM
N#Cc1cccc([C@@]23CC[C@@H](N(CCN4CC[C@@H](O)C4)C(=O)Nc4cc(Cl)cc(Cl)c4)CC2C3)c1 (some centres unmarked)	13 nM
CCOC(=O)NC1CCN(CCCN(C(=O)Nc2ccc(F)c(F)c2)[C@@H]2CC[C@@]3(c4cccc(C#N)c4)CC3C2)C1 (some centres unmarked)	5.9 nM
N#Cc1cccc([C@@]23CC[C@@H](N(CCCN4CC[C@@H](O)C4)C(=O)Nc4ccc(F)c(F)c4)CC2C3)c1 (some centres unmarked)	1.2 nM
CNS(=O)(=O)NC1CCN(CCCN(C(=O)Nc2ccc(F)c(Cl)c2)[C@@H]2CC[C@@]3(c4cccc(C#N)c4)CC3C2)C1 (some centres unmarked)	4.9 nM
N#Cc1cccc([C@@]23CC[C@@H](N(CCCN4CC[C@@H](O)C4)C(=O)Nc4cc(F)cc(F)c4)CC2C3)c1 (some centres unmarked)	1.8 nM
CN1CCN(CCCCN(C(=O)Nc2ccc(F)c(Cl)c2)C2CC[C@@]3(c4ccc(C#N)cc4)CC23)CC1 (some centres unmarked)	2.9 nM
N#Cc1cccc([C@@]23CC[C@@H](N(CCCN4CC[C@@H](O)C4)C(=O)Nc4ccc(F)c(Cl)c4)CC2C3)c1 (some centres unmarked) [drawing 656]	1.8 nM
N#Cc1cccc([C@]23CC[C@@H](N(CCN4CC[C@@H](O)C4)C(=O)Nc4ccc(F)c(C(F)(F)F)c4)[C@H]2C3)c1 [drawing 669]	7.1 nM
CC(C)N(CCN(C(=O)Nc1ccsc1)[C@H]1CC[C@]2(c3cccc(C#N)c3)CC2C1)C(C)C (some centres unmarked)	11.2 nM
CC(=O)Nc1cccc([C@@]23CC[C@@H](N(CCCN4CCN(C)CC4)C(=O)Nc4ccc(F)c(Cl)c4)CC2C3)c1 (some centres unmarked)	0.9 nM
CC(=O)Nc1cccc(C23CC[C@@H](N(CCN4CC[C@@H](O)C4)C(=O)Nc4ccc(F)c(C(F)(F)F)c4)CC2C3)c1 (some centres unmarked)	4.8 nM

Structure (SMILES)	Ki
N#Cc1cccc([C@]23CC[C@@H](N(CCN4CCCCC4)C(=O)Nc4ccc(F)c(Cl)c4)[C@H]2C3)c1 [drawing 671]	4.1 nM
N#Cc1cccc([C@]23CC[C@H](N(CC4CCN(C5CCSC5)CC4)C(=O)Nc4ccc(F)c(Cl)c4)CC2C3)c1 (some centres unmarked)	7.5 nM
N#Cc1cccc(C23CCC(N(CCN4CCCC4)C(=O)Nc4cc(Cl)cc(Cl)c4)C2C3)c1 (centres unmarked)	15 nM
N#Cc1cccc([C@@]23CC[C@@H](N(CCCN4CC[C@@H](O)C4)C(=O)Nc4ccc(F)c(Cl)c4)CC2C3)c1 (some centres unmarked) [drawing 646]	3 nM
CN(C)CCN(C(=O)Nc1ccc(F)c(Cl)c1)[C@@H]1CC[C@]2(c3cccc(C#N)c3)C[C@H]12 [drawing 673]	14 nM
CNCCN(C(=O)Nc1ccc(F)c(Cl)c1)[C@@H]1CC[C@@]2(c3cccc(C#N)c3)CC2C1 (some centres unmarked)	9.1 nM
N#Cc1cccc([C@@]23CC[C@@H](N(CC4CCN(S(=O)(=O)N5CCOCC5)CC4)C(=O)Nc4ccc(F)c(F)c4)CC2C3)c1 (some centres unmarked)	45 nM
N#Cc1cccc([C@@]23CCC(N(CCN4CC[C@@H](O)C4)C(=O)Nc4cc(Cl)cc(Cl)c4)CC2C3)c1 (some centres unmarked)	3.5 nM
CC(C)N(CCN(C(=O)Nc1cccc(F)c1)[C@H]1CC[C@]2(c3cccc(C#N)c3)CC2C1)C(C)C (some centres unmarked)	2.1 nM
N#Cc1cccc([C@@]23CC[C@@H](N(CCN4C[C@H]5C[C@H]5[C@H]4CO)C(=O)Nc4cc(Cl)nc(Cl)c4)CC2C3)c1 (some centres unmarked)	3 nM
O=C(Nc1ccc(F)c(C(F)(F)F)c1)N(CCN1CCCC1)C1CC=C(c2cccc(Cl)c2)CC1 (centres unmarked)	12 nM
N#Cc1cccc([C@@]23CC[C@@H](N(CCCN4CCCC4)C(=O)Nc4ccc(F)c(F)c4)CC2C3)c1 (some centres unmarked)	1.1 nM
CN1CCN(CCCN(C(=O)Nc2ccc(F)c(C(F)(F)F)c2)[C@@H]2CC[C@@]3(c4ccc(C#N)cc4)CC23)CC1 (some centres unmarked)	3 nM
CC(C)N(CCF)CCN(C(=O)Nc1cc(Cl)nc(Cl)c1)[C@@H]1CC[C@@]2(c3cccc(C#N)c3)CC2C1 (some centres unmarked)	10.2 nM
CS(=O)(=O)N1CCC(CN(C(=O)Nc2ccc(F)c(F)c2)[C@@H]2CC[C@@]3(c4cccc(C#N)c4)CC3C2)CC1 (some centres unmarked)	5.4 nM
CC(C)N(CCN(C(=O)Nc1cc(Cl)nc(Cl)c1)[C@@H]1CC[C@@]2(c3cccc(C#N)c3)CC2C1)C(C)CO (some centres unmarked)	1.6 nM
N#Cc1cccc([C@@]23CC[C@@H](N(CCCN4CCC4)C(=O)Nc4ccc(F)c(F)c4)CC2C3)c1 (some centres unmarked)	3.7 nM
CC(C)N(CCN(C(=O)Nc1ccc(F)c(F)c1)C1CC[C@]2(c3cccc(C#N)c3)CC2C1)C(C)C (some centres unmarked)	2.8 nM
N#Cc1cccc([C@@]23CC[C@@H](N(CCN4C[C@@H](O)[C@@H](O)C4)C(=O)Nc4ccc(F)c(Cl)c4)CC2C3)c1 (some centres unmarked)	18 nM
CN1CCN(CCCCN(C(=O)Nc2cc(Cl)nc(Cl)c2)C2CC[C@@]3(c4ccc(C#N)cc4)CC23)CC1 (some centres unmarked)	2 nM
N#Cc1cccc(C2=CCC(N(CCN3CCCC3)C(=O)Nc3ccc(F)c(C(F)(F)F)c3)CC2)c1 (centres unmarked)	2.7 nM
C[S+]([O-])c1cccc(C23CCC(N(CCCN4CCCC4)C(=O)Nc4ccc(Cl)c(Cl)c4)CC2C3)c1 (centres unmarked)	20 nM
N#Cc1cccc([C@]23CCC(N(CCN4CC[C@@H](O)C4)C(=O)Nc4ccc(F)c(Cl)c4)[C@H]2C3)c1 (some centres unmarked)	13 nM
